# Assay results reported in US10294202B2, “Pyrrolidinones as herbicides” (FMC Corporation, priority 2013, dated 2019).
# Assays:
# Assay in all cases: Test C pre-/postemergence herbicide test
# bromegrass, downy = assay type: in vivo, Bromus tectorum
# Summary of the method: (§1)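 Greenhouse pots; formulation = non-phytotoxic solvent mix + surfactant. PRE onto seeds in loam:sand; POST at 1–4 leaves (2–18 cm) in peat moss/vermiculite medium. Read-out: visual % control vs untreated, day 13–15.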
# cupgrass, woolly = assay type: in vivo, Eriochloa villosa
# Summary of the method: as §1
# cocklebur = assay type: in vivo, Xanthium strumarium
# Summary of the method: as §1
# Russian thistle = assay type: in vivo, Salsola kali; details: Preemergence
# Summary of the method: as §1
# kochia = assay type: in vivo, Kochia scoparia
# Summary of the method: as §1
# surinam grass = assay type: in vivo, Brachiaria decumbens
# Summary of the method: as §1
# bermudagrass = assay type: in vivo, Cynodon dactylon
# Summary of the method: as §1
# nightshade = assay type: in vivo, Solanum ptycanthum; details: Preemergence
# Summary of the method: as §1
# goosegrass = assay type: in vivo, Eleusine indica
# Summary of the method: as §1
# sunflower = assay type: in vivo, Helianthus annuus; details: Preemergence
# Summary of the method: as §1
# foxtail, green = assay type: in vivo, Setaria viridis
# Summary of the method: as §1
# [1] = Postemergence, 31 g ai/ha, scale 0 (no effect) to 100 (complete control)
# [2] = Postemergence, 62 g ai/ha, scale 0 to 100 (0 no effect, 100 complete control)
# [3] = Postemergence, 125 g ai/ha, scale 0 to 100 (0 no effect, 100 complete control)
# [4] = Postemergence, 250 g ai/ha, scale 0 to 100 (0 no effect, 100 complete control)
# [5] = Preemergence, 31 g ai/ha, scale 0 to 100 (0 no effect, 100 complete control)
# [6] = Preemergence, 62 g ai/ha, scale 0 to 100
# [7] = Preemergence, 125 g ai/ha, scale 0 to 100 (0 no effect, 100 complete control)
# [8] = Preemergence, 250 g ai/ha, scale 0 to 100 (0 no effect, 100 complete control)
# [9] = 125 g ai/ha, scale 0 to 100 (0 no effect, 100 complete control)
# [10] = Preemergence, 31 g ai/ha, scale 0 to 100, 0 is no effect and 100 is complete control
# [11] = 31 g ai/ha, scale 0 to 100, 0 is no effect and 100 is complete control
smiles,measurement,setting,value
O=C1NCC(c2cc(F)c(F)c(F)c2)C1C(=O)Nc1ccccc1F (racemic) [Compound 34],"Plant response rating, Bromegrass, Downy","bromegrass, downy; [1]",0
same,"Plant response rating, Bromegrass, Downy","bromegrass, downy; [2]",0
same,"Plant response rating, Bromegrass, Downy","bromegrass, downy; [3]",0
same,"Plant response rating, Bromegrass, Downy","bromegrass, downy; [4]",0
same,"Bromegrass, Downy plant response rating","bromegrass, downy; [5]",0
same,"Plant response rating, Bromegrass, Downy","bromegrass, downy; [6]",0
same,"Plant response rating, Bromegrass, Downy","bromegrass, downy; [7]",10
same,"Plant response rating, Bromegrass, Downy","bromegrass, downy; [8]",30
same,"Plant response rating, Cupgrass, Woolly","cupgrass, woolly; [1]",0
same,"Plant response rating, Cupgrass, Woolly","cupgrass, woolly; [2]",0
same,"Plant response rating, Cupgrass, Woolly","cupgrass, woolly; [3]",0
same,"Plant response rating, Cupgrass, Woolly","cupgrass, woolly; [4]",30
same,"Cupgrass, Woolly plant response rating","cupgrass, woolly; [5]",50
same,"Plant response rating, Cupgrass, Woolly","cupgrass, woolly; [6]",85
same,"Plant response rating, Cupgrass, Woolly","cupgrass, woolly; [7]",95
same,"Plant response rating, Cupgrass, Woolly","cupgrass, woolly; [8]",95
same,"Plant response rating, Cocklebur",cocklebur; [1],0
same,"Plant response rating, Cocklebur",cocklebur; [2],5
same,"Plant response rating, Cocklebur",cocklebur; [3],5
same,"Plant response rating, Cocklebur",cocklebur; [4],25
same,Cocklebur plant response rating,cocklebur; [5],0
same,"Plant response rating, Cocklebur",cocklebur; [6],0
same,"Plant response rating, Cocklebur",cocklebur; [7],0
same,"Plant response rating, Cocklebur",cocklebur; [8],0
same,"Plant response rating, Russian Thistle","Russian thistle; 62 g ai/ha, scale 0 to 100",0
same,"Plant response rating, Russian Thistle",Russian thistle; [9],0
same,"Plant response rating, Kochia",kochia; [1],5
same,"Plant response rating, Kochia",kochia; [2],5
same,"Plant response rating, Kochia",kochia; [3],5
same,"Plant response rating, Kochia",kochia; [4],5
same,"Plant response rating, Kochia",kochia; [6],0
same,"Plant response rating, Kochia",kochia; [7],0
same,"Plant response rating, Surinam Grass",surinam grass; [1],0
same,"Plant response rating, Surinam Grass",surinam grass; [2],0
same,"Plant response rating, Surinam Grass",surinam grass; [3],55
same,"Plant response rating, Surinam Grass",surinam grass; [4],60
same,"Plant response rating, Surinam Grass",surinam grass; [6],95
same,"Plant response rating, Surinam Grass",surinam grass; [7],100
same,"Plant response rating, Bermudagrass",bermudagrass; [1],0
same,"Plant response rating, Bermudagrass",bermudagrass; [2],0
same,"Plant response rating, Bermudagrass",bermudagrass; [3],0
same,"Plant response rating, Bermudagrass",bermudagrass; [4],0
same,Bermudagrass plant response rating,bermudagrass; [5],0
same,"Plant response rating, Bermudagrass",bermudagrass; [6],0
same,"Plant response rating, Bermudagrass",bermudagrass; [7],0
same,"Plant response rating, Bermudagrass",bermudagrass; [8],45
same,"Plant response rating, Nightshade","nightshade; 62 g ai/ha, scale 0 to 100",0
same,"Plant response rating, Nightshade",nightshade; [9],0
same,"Plant response rating, Goosegrass",goosegrass; [1],10
same,"Plant response rating, Goosegrass",goosegrass; [2],15
same,"Plant response rating, Goosegrass",goosegrass; [3],15
same,"Plant response rating, Goosegrass",goosegrass; [4],25
same,Goosegrass plant response rating,goosegrass; [5],0
same,"Plant response rating, Goosegrass",goosegrass; [6],5
same,"Plant response rating, Goosegrass",goosegrass; [7],10
same,Plant response rating Sunflower,"sunflower; 62 g ai/ha, scale 0 to 100",0
same,Plant response rating Sunflower,sunflower; [9],0
same,"Plant response rating, Foxtail, Green","foxtail, green; [1]",0
same,"Plant response rating, Foxtail, Green","foxtail, green; [2]",60
same,"Plant response rating, Foxtail, Green","foxtail, green; [3]",60
same,"Plant response rating, Foxtail, Green","foxtail, green; [4]",60
same,"Foxtail, Green plant response rating","foxtail, green; [5]",98
same,"Plant response rating, Foxtail, Green","foxtail, green; [6]",98
same,"Plant response rating, Foxtail, Green","foxtail, green; [7]",98
same,"Plant response rating, Foxtail, Green","foxtail, green; [8]",100
O=C1NCC(c2cccc(Br)c2)C1C(=O)Nc1ccccc1F (stereo not shown) [Compound 66],"Bromegrass, Downy plant response rating","bromegrass, downy; [10]",0
same,"Plant response rating, Bromegrass, Downy","bromegrass, downy; [6]",0
same,"Plant response rating, Bromegrass, Downy","bromegrass, downy; [7]",0
same,"Plant response rating, Bromegrass, Downy","bromegrass, downy; [8]",5
same,"Cupgrass, Woolly plant response rating","cupgrass, woolly; [10]",10
same,"Plant response rating, Cupgrass, Woolly","cupgrass, woolly; [6]",75
same,"Plant response rating, Cupgrass, Woolly","cupgrass, woolly; [7]",80
same,"Plant response rating, Cupgrass, Woolly","cupgrass, woolly; [8]",85
same,Cocklebur plant response rating,cocklebur; [10],0
same,Russian Thistle plant response rating,Russian thistle; [11],0
same,"Plant response rating, Russian Thistle","Russian thistle; 62 g ai/ha, scale 0 to 100",0
same,"Plant response rating, Russian Thistle",Russian thistle; [9],0
same,Kochia plant response rating,kochia; [10],0
same,"Plant response rating, Kochia",kochia; [6],0
same,"Plant response rating, Kochia",kochia; [7],10
same,Surinam Grass plant response rating,surinam grass; [10],0
same,"Plant response rating, Surinam Grass",surinam grass; [6],0
same,"Plant response rating, Surinam Grass",surinam grass; [7],75
same,Bermudagrass plant response rating,bermudagrass; [10],0
same,"Plant response rating, Bermudagrass",bermudagrass; [6],0
same,"Plant response rating, Bermudagrass",bermudagrass; [7],0
same,"Plant response rating, Bermudagrass",bermudagrass; [8],0
same,Nightshade plant response rating,nightshade; [11],0
same,"Plant response rating, Nightshade","nightshade; 62 g ai/ha, scale 0 to 100",0
same,"Plant response rating, Nightshade",nightshade; [9],0
same,Goosegrass plant response rating,goosegrass; [10],5
same,"Plant response rating, Goosegrass",goosegrass; [6],5
same,"Plant response rating, Goosegrass",goosegrass; [7],10
same,Sunflower plant response rating,sunflower; [11],0
same,Plant response rating Sunflower,"sunflower; 62 g ai/ha, scale 0 to 100",0
same,Plant response rating Sunflower,sunflower; [9],0
same,"Foxtail, Green plant response rating","foxtail, green; [10]",50
same,"Plant response rating, Foxtail, Green","foxtail, green; [6]",80
same,"Plant response rating, Foxtail, Green","foxtail, green; [7]",90
same,"Plant response rating, Foxtail, Green","foxtail, green; [8]",98
O=C1NCC(c2ccc3c(c2)OC(F)(F)O3)C1C(=O)Nc1cccc(F)c1F (stereo not shown) [Compound 62],"Bromegrass, Downy plant response rating","bromegrass, downy; [5]",0
same,"Plant response rating, Bromegrass, Downy","bromegrass, downy; [6]",0
same,"Plant response rating, Bromegrass, Downy","bromegrass, downy; [7]",0
same,"Plant response rating, Bromegrass, Downy","bromegrass, downy; [8]",0
same,"Cupgrass, Woolly plant response rating","cupgrass, woolly; [5]",65
same,"Plant response rating, Cupgrass, Woolly","cupgrass, woolly; [6]",75
same,"Plant response rating, Cupgrass, Woolly","cupgrass, woolly; [7]",80
same,"Plant response rating, Cupgrass, Woolly","cupgrass, woolly; [8]",85
same,Cocklebur plant response rating,cocklebur; [5],0
same,"Plant response rating, Cocklebur",cocklebur; [7],0
same,"Plant response rating, Cocklebur",cocklebur; [8],5
same,"Plant response rating, Russian Thistle","Russian thistle; 62 g ai/ha, scale 0 to 100",30
same,"Plant response rating, Russian Thistle",Russian thistle; [9],85
same,"Plant response rating, Kochia",kochia; [6],0
same,"Plant response rating, Kochia",kochia; [7],15
same,"Plant response rating, Surinam Grass",surinam grass; [6],60
same,"Plant response rating, Surinam Grass",surinam grass; [7],80
same,Bermudagrass plant response rating,bermudagrass; [5],0
same,"Plant response rating, Bermudagrass",bermudagrass; [6],30
same,"Plant response rating, Bermudagrass",bermudagrass; [7],50
same,"Plant response rating, Bermudagrass",bermudagrass; [8],60
same,"Plant response rating, Nightshade","nightshade; 62 g ai/ha, scale 0 to 100",15
same,Goosegrass plant response rating,goosegrass; [5],10
same,"Plant response rating, Goosegrass",goosegrass; [6],25
same,"Plant response rating, Goosegrass",goosegrass; [7],70
same,Plant response rating Sunflower,"sunflower; 62 g ai/ha, scale 0 to 100",20
same,Plant response rating Sunflower,sunflower; [9],25
same,"Foxtail, Green plant response rating","foxtail, green; [5]",75
same,"Plant response rating, Foxtail, Green","foxtail, green; [6]",90
same,"Plant response rating, Foxtail, Green","foxtail, green; [7]",90
same,"Plant response rating, Foxtail, Green","foxtail, green; [8]",90
Cc1ccccc1NC(=O)C1C(=O)NCC1c1cc(F)c(F)c(F)c1 (racemic) [Compound 35],"Bromegrass, Downy plant response rating","bromegrass, downy; [5]",0
same,"Plant response rating, Bromegrass, Downy","bromegrass, downy; [6]",0
same,"Plant response rating, Bromegrass, Downy","bromegrass, downy; [7]",5
same,"Plant response rating, Bromegrass, Downy","bromegrass, downy; [8]",40
same,"Cupgrass, Woolly plant response rating","cupgrass, woolly; [5]",55
same,"Plant response rating, Cupgrass, Woolly","cupgrass, woolly; [6]",80
same,"Plant response rating, Cupgrass, Woolly","cupgrass, woolly; [7]",85
same,"Plant response rating, Cupgrass, Woolly","cupgrass, woolly; [8]",90
same,Cocklebur plant response rating,cocklebur; [5],0
same,"Plant response rating, Cocklebur",cocklebur; [6],0
same,"Plant response rating, Cocklebur",cocklebur; [7],0
same,"Plant response rating, Cocklebur",cocklebur; [8],0
same,"Plant response rating, Russian Thistle","Russian thistle; 62 g ai/ha, scale 0 to 100",0
same,"Plant response rating, Kochia",kochia; [6],0
same,"Plant response rating, Kochia",kochia; [7],5
same,"Plant response rating, Surinam Grass",surinam grass; [6],90
same,"Plant response rating, Surinam Grass",surinam grass; [7],100
same,Bermudagrass plant response rating,bermudagrass; [5],0
same,"Plant response rating, Bermudagrass",bermudagrass; [6],0
same,"Plant response rating, Bermudagrass",bermudagrass; [7],0
same,"Plant response rating, Bermudagrass",bermudagrass; [8],75
same,"Plant response rating, Nightshade","nightshade; 62 g ai/ha, scale 0 to 100",0
same,"Plant response rating, Nightshade",nightshade; [9],0
same,Goosegrass plant response rating,goosegrass; [5],0
same,"Plant response rating, Goosegrass",goosegrass; [6],0
same,"Plant response rating, Goosegrass",goosegrass; [7],5
same,Plant response rating Sunflower,"sunflower; 62 g ai/ha, scale 0 to 100",0
same,Plant response rating Sunflower,sunflower; [9],10
same,"Foxtail, Green plant response rating","foxtail, green; [5]",90
same,"Plant response rating, Foxtail, Green","foxtail, green; [6]",98
same,"Plant response rating, Foxtail, Green","foxtail, green; [7]",98
same,"Plant response rating, Foxtail, Green","foxtail, green; [8]",98
